Assay results published in patent US8519110B2, “mRNA cap analogs” (Board of Supervisors of Louisiana State University And …, priority 2008, dated 2013).
Like-named read-outs stand apart in the source and are kept apart here.

Columns and labels:
eIF4E = eIF4E (Mus musculus, UniProt P63073); assay: Binding affinity of cap analogs to eIF4E by fluorescence titration; conditions: equilibrium association constant; for Cap analog/eIF4E affinity (KAS): 20 °C, pH 7.2, ionic strength 150 mM
Protocol: Fluorescence titration measurements were carried out on an LS-50B or LS-55 spectrofluorometer (Perkin Elmer Co.) at 20.0±0.2° C. in 50 mM HEPES/KOH (pH 7.2), 0.5 mM EDTA, and 1 mM DTT, with ionic strength adjusted to 150 mM by addition of KCl. Various cap analogue solutions, of increasing concentration, were added in 1 μl aliquots to 1.4 ml of 0.1 or 0.2 μM protein solutions. Fluorescence intensities were measured with excitation at 280 nm or 295 nm with 2.2 nm bandwidth, and detection at 337 nm with 4 nm bandwidth and a 290-nm cut-off filter. The data were corrected for sample dilution and inner filter effects. Equilibrium association constants (Kas) were determined by fitting the theoretical dependence of fluorescence intensity on cap analog concentration to the experimental data, as otherwise described in A. Niedźwiecka et al., “Biophysical studies of eIF4E cap-binding protein: recognition of mRNA 5′ cap structure and synthetic fragments of eIF4G and 4E-BP1 proteins,” J. Mol. Biol., vol. 312, pp. 615-635 (2002). The concentration of protein was allowed to be a free parameter in the equilibrium equation, to determine the amount of “active” protein. The final Kas was calculated as a weighted average of three to ten independent titrations, with the weights taken as the reciprocals of the squares of the numerical standard deviations. Numerical nonlinear least-square regression analysis was performed using ORGIN 6.0 (Microcal Software Inc., USA).
The binding affinities of eukaryotic eIF4E for various cap analogs were determined by fluorescence quenching. This biophysical test allows one to predict the potential efficacy of cap analogs in translation. Those having higher affinities for eIF4E than the unmodified cap analog (m^7GpppG) are expected to be better recognized by the translational machinery, leading to higher translational efficiencies. They also are expected to compete more effectively with unmodified mRNA when free cap dinucleotides are used to inhibit translation. See generally E. Grudzien-Nogalska et al., “Synthesis of anti-reverse cap analogs (ARCAs) and their applications in mRNA translation and stability,” Methods Enzymol., vol. 431, pp. 203-227 (2007).

Human DcpS = target: T1, Human DcpS (Homo sapiens, UniProt Q96C86); assay: Assay of susceptibility to DcpS (RP HPLC); type: biochemical
T1 construct: made in house; host or cells: Escherichia coli
T1 sequence (Q96C86 1-337): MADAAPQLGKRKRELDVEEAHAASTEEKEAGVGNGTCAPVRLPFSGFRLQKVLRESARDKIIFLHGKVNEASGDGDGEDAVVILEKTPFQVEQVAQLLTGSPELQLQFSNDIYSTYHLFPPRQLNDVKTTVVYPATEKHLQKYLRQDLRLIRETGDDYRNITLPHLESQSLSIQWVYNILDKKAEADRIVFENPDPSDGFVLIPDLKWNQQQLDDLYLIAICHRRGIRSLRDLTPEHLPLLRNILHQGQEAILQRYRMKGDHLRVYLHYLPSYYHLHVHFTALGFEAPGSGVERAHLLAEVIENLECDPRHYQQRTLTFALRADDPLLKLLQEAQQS
Protocol: Human DcpS was expressed in Escherichia coli as described in L. Cohen et al., “Nematode m^7GpppG and m3^2,2,7GpppG decapping: activities in Ascaris embryos and characterization of C. elegans scavenger DcpS,” RNA, vol. 10, pp. 1609-1624 (2004). A 15 μM solution of the protein in 20 mM Tris buffer, pH 7.5, containing 50 mM KCl, 0.2 mM EDTA, 1 mM DTT, 0.5 mM PMSF, and 20% glycerol was stored at −80° C. until used. Enzymatic reactions were carried out at 30° C. in 500 μl of 50 mM Tris-HCl, pH 7.9, containing 20 mM MgCl2 and 60 mM (NH4)2SO4. A 40 μM solution of the selected cap analog was treated with 5.0 μl of DcpS for 120 min. At times of 10, 30, 60, and 120 min, a 100-μl sample was collected from the reaction mixture and deactivated by incubation at 90° C. for 2 min. Samples were analyzed without further treatment by analytical RP HPLC with a linear gradient of methanol in 0.1 M KH2PO4, pH 6.0, from 0-50% over 15 min.

[1] = target: cap-dependent translation of luciferase mRNA in reticulocyte lysate; assay: Inhibition of cap-dependent translation in vitro by free cap analogs; type: biochemical, rabbit
Protocol: In vitro translation reactions were performed in 12.5 μl for 60 min at 30° C. under conditions favorable for cap-dependent translation. In some cases, the reaction mixture was incubated for 60 min at 30° C. prior to adding the dinucleotide cap analog (inhibitor) and m2^7,3′-OGppG-capped luciferase mRNA to start translation. In other cases, to analyze biological stability, the cap analog was incubated in the translation mixture for 60 min at 30° C. prior to adding the luciferase mRNA to start translation. A typical reaction mixture contained 56% reticulocyte lysate, the 20 “standard” amino acids (0.01 mM each), MgCl2 (1.2 mM), potassium acetate (170 mM), RiboLock Ribonuclease Inhibitor (0.32 U/μl), cap analog solution ( 1/10 of total reaction volume), and m2^7,3′-OGpppG-capped luciferase RNA. […] Reactions were performed with cap analog concentrations ranging from 0.12 to 100 μM. Luciferase activity was measured in a luminometer. […] The program OriginPro8 (OriginLab) was used for curve fitting with the equation qLUC=Z/(1+I/IC50)+N, where qLUC is the activity of luciferase synthesized in the presence of cap analog, Z is the activity of luciferase synthesized in the absence of cap analog, N is the activity of luciferase synthesized in a cap-independent manner, and I is the cap analog concentration.
Two type of experiments were carried out. In one set of experiments (condition A), a cap analog was added to the translation system together with luciferase mRNA. In the other set of experiments (condition B), the cap analog was incubated in the translation system for 60 min before addition of mRNA. […] There was a correlation between the resistance to hydrolysis by DcpS and the stability of analogs in the translation system.

[2] = test system: rabbit reticulocyte lysate system; assay: In vitro translation efficiency of capped luciferase mRNA with 31-base poly(A) tail, method II transcripts; type: biochemical; conditions: for Translation efficiency in comparison to m^7GpppG-LUC-(A)31 mRNA, Experiment No. 4: experiment 4; for Translation efficiency in comparison to m^7GpppG-LUC-(A)31 mRNA, Experiment No. 5: experiment 5; for Translation efficiency in comparison to m^7GpppG-LUC-(A)31 mRNA, Mean: mean of experiments
Protocol: Capped, polyadenylated luciferase mRNAs were synthesized in vitro by PCR from a dsDNA template that contained the SP6 promoter, the 5′-UTR sequence of rabbit β-globin mRNA, the entire firefly luciferase coding region, and 31 adenosine residues. A typical transcription reaction mixture (40 μl) contained SP6 transcription buffer (Fermentas), 0.7 ug of DNA template, 1 U/μl RiboLock Ribonuclease Inhibitor (Fermentas), 0.5 mM each of ATP, CTP, and UTP, 0.1 mM GTP, and 0.5 mM dinucleotide cap analog. The reaction mixture was incubated at 37° C. for 5 min before addition of SP6 RNA polymerase (Fermentas) to a final concentration of 1 U/μl, and incubation then continued for 45 min at 37° C. The reaction mixture was treated with DNase as in Method I. RNA transcripts were purified with NucAway Spin Columns (Ambion). The integrity of transcripts and quantitation was performed as in Method I.
(§1) A micrococcal nuclease-treated rabbit reticulocyte lysate system (Flexi Rabbit Reticulocyte Lysate System, Promega) was used for in vitro translation. Translation reactions were performed in 10 μl for 60 min at 30° C. A typical reaction mixture contained 40% reticulocyte lysate, the 20 “standard” amino acids (0.01 mM each), MgCl2 (1.2 mM), potassium acetate (170 mM), and mRNA (five different concentrations of each transcript, ranging from 0.25 to 4 μg/ml). Luciferase activity was measured in a luminometer (Glomax, Promega). Linear regression was used to fit the data points (luciferase activity versus concentration of mRNA transcript), and translational efficiency was defined as the slope of this line. The relative translational efficiencies of the test mRNAs were compared to that of m^7GpppG-capped luciferase mRNA, the latter being defined as 1.0.

[3] = test system: rabbit reticulocyte lysate system; assay: In vitro translation efficiency of capped luciferase mRNA, method I transcripts; type: biochemical
Protocol: A DNA template for in vitro transcription was synthesized by PCR from the plasmid SP6p-5′UTR β-globin-LUCiferase. The template contained the SP6 promoter followed by the 5′-UTR sequence of rabbit β-globin mRNA and the entire firefly luciferase mRNA coding region. A typical in vitro transcription reaction mixture (50 μl) contained SP6 transcription buffer (Fermentas, cat. no. EP0131), 2 μg of DNA template, 2 U/μl RiboLock Ribonuclease Inhibitor (Fermentas), 2 mM each of ATP, CTP, and UTP, 0.1 mM GTP, and 1 mM dinucleotide cap analog. The reaction mixture was incubated at 37° C. for 5 min before the addition of SP6 RNA polymerase (Fermentas) to a final concentration of 2 U/μl. After 30 min of incubation at 37° C., GTP was added to a final concentration of 1 mM, and the reaction continued for an additional 90 min. The reaction mixtures were then treated with 1 U of DNase RQ1 (RNAse-free, Promega) per μg of template DNA in transcription buffer at 37° C. for 20 min. RNA transcripts were purified on DEPC-treated Sephadex G-50 spin columns (Pharmacia). The integrity of transcripts was confirmed by electrophoresis on a non-denaturating, 1% agarose gel. Concentrations were determined spectrophotometrically. The transcripts were stored at −80° C. until used.
as §1

[4] = 40 μM cap analog, 30° C., up to 120 min
[5] = cap analog added together with luciferase mRNA, read-out: Inhibition of in vitro translation (IC50), condition A
[6] = cap analog incubated in translation system 60 min before addition of mRNA, read-out: Inhibition of in vitro translation (IC50), condition B

Sequence of eIF4E (P63073 28-217 limits assumed): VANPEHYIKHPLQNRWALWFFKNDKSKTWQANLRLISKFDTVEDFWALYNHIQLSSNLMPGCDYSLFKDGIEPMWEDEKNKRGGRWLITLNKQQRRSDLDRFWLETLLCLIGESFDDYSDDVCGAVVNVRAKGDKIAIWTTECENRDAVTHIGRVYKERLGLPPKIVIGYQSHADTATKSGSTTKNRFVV

| Cap analog/eIF4E affinity (KAS) (eIF4E) | Susceptibility to DcpS (Human DcpS; [4]) | IC50 [1, 5] | IC50 [1, 6] | Translation efficiency in comparison to m^7GpppG-LUC-(A)31 mRNA, Experiment No. 4 [2] | Translation efficiency in comparison to m^7GpppG-LUC-(A)31 mRNA, Experiment No. 5 [2] | Translation efficiency in comparison to m^7GpppG-LUC-(A)31 mRNA, Mean [2] | Cap analog-eIF4E affinity (KAS) (eIF4E; Table 3) | Susceptibility to DcpS (Human DcpS; Table 3) | Translation efficiency in comparison with m^7GpppG-LUC mRNA, Experiment No. 1 ([3]; experiment 1) | Translation efficiency in comparison with m^7GpppG-LUC mRNA, Experiment No. 2 ([3]; experiment 2) | Translation efficiency in comparison with m^7GpppG-LUC mRNA, Experiment No. 3 ([3]; experiment 3) | Translation efficiency in comparison with m^7GpppG-LUC mRNA, Experiment No. 4 ([3]; experiment 4) | Translation efficiency in comparison with m^7GpppG-LUC mRNA, Mean ([3]; mean of experiments) | In vitro translational efficiency, method I ([3]; relative to m^7GpppG-capped luciferase mRNA = 1.0) | In vitro translational efficiency (method II) ([2]; Table 3, relative to m^7GpppG-capped mRNA = 1.0) | Translation efficiency in comparison to m^7GpppG-LUC-(A)31 mRNA, Experiment No. 1 ([2]; experiment 1) | Translation efficiency in comparison to m^7GpppG-LUC-(A)31 mRNA, Experiment No. 2 ([2]; experiment 2) | Translation efficiency in comparison to m^7GpppG-LUC-(A)31 mRNA, Experiment No. 3 ([2]; experiment 3) | Structure (SMILES) |
| --- | --- | --- | --- | --- | --- | --- | --- | --- | --- | --- | --- | --- | --- | --- | --- | --- | --- | --- | --- |
| 13.0 ± 0.2 μM^−1 | resistant | 4.5 ± 0.5 µM | 3.5 ± 0.9 µM | – | – | – | – | – | – | – | – | – | – | – | – | – | – | – | [BH3-]P(=O)(OP(=O)(O)OCC1OC(n2cnc3c(=O)[nH]c(N)nc32)C(O)C1O)OP(=O)(O)OCC1OC(n2c[n+](C)c3c(=O)[nH]c(N)nc32)C(O)C1O (single isomer, unassigned) [m^7GppBH3pG (D2), m^7GppBH3pG] |
| 14.5 ± 0.2 μM^−1 | hydrolyzed | 3.2 ± 0.3 µM | 9.2 ± 1.9 µM | – | – | – | – | – | – | – | – | – | – | – | – | – | – | – | [BH3-]P(=O)(OC[C@H]1O[C@@H](n2cnc3c(=O)[nH]c(N)nc32)[C@H](O)[C@@H]1O)OP(=O)(O)OP(=O)(O)OC[C@H]1O[C@@H](n2c[n+](C)c3c(=O)[nH]c(N)nc32)[C@H](O)[C@@H]1O (single isomer, unassigned) [m^7GpppBH3G (D1), m^7GpppBH3G] |
| 14.4 ± 0.2 μM^−1 | hydrolyzed | – | – | 1.76 | 1.92 | 1.84 | – | – | – | – | – | – | – | – | – | – | – | – | [BH3-]P(=O)(OC[C@H]1O[C@@H](n2cnc3c(=O)[nH]c(N)nc32)[C@H](O)[C@@H]1O)OP(=O)(O)OP(=O)(O)OC[C@H]1O[C@@H](n2c[n+](C)c3c(=O)[nH]c(N)nc32)[C@H](OC)[C@@H]1O (single isomer, unassigned) [m2^7,2′-OGpppBH3G (D2), m2^7,2′-OGpppBH3G] |
| 13.2 ± 0.2 μM^−1 | resistant | – | – | 3.16 | 3.53 | 3.35 | – | – | – | – | – | – | – | – | – | – | – | – | [BH3-]P(=O)(OP(=O)(O)OCC1OC(n2cnc3c(=O)[nH]c(N)nc32)C(O)C1O)OP(=O)(O)OCC1OC(n2c[n+](C)c3c(=O)[nH]c(N)nc32)C(OC)C1O (single isomer, unassigned) [m2^7,2′-OGppBH3pG (D2), m2^7,2′-OGppBH3pG] |
| 10.2 ± 0.3 μM^−1 | hydrolyzed | – | – | 1.77 | 2.08 | 1.82 | 10.2 ± 0.3 μM^−1 | hydrolyzed | 2.53 | 2.92 | 2.96 | 2.50 | 2.73 | 2.73 ± 0.25 | 1.82 ± 0.20 | 1.98 | 1.66 | 1.61 | CO[C@H]1[C@@H](O)[C@H]([n+]2cn(C)c3c(=O)[nH]c(N)nc32)O[C@@H]1COP(=O)([O-])OP(=O)(O)OP(=O)(O)OC[C@H]1O[C@@H](n2cnc3c(=O)[nH]c(N)nc32)[C@H](O)[C@@H]1O [m2^7,3′-OGpppG, 7-methyl(3′-O-methyl)GpppG, reference compound] |
